Measured values: US20160166576A1, “SUBSTITUTED AMIDOPYRAZOLE INHIBITORS OF INTERLEUKIN RECEPTOR-ASSOCIATED KINASES (IRAK-4)” (MERCK SHARP & DOHME CORP., priority 2013, published 2016)
Where two headings read alike, the source gives them in different places.

What was measured:
IRAK4 = biological target: T1, IRAK4 (Homo sapiens, UniProt Q9NWZ3); experiment: IRAK4 IMAP kinase activity assay (fluorescence polarization); format: biochemical; settings: 1 nM GST tagged IRAK4, 100 μM ATP, 1 hour at 25° C.
T1 construct: GST; purchased SignalChem
T1 sequence (Q9NWZ3 1-460): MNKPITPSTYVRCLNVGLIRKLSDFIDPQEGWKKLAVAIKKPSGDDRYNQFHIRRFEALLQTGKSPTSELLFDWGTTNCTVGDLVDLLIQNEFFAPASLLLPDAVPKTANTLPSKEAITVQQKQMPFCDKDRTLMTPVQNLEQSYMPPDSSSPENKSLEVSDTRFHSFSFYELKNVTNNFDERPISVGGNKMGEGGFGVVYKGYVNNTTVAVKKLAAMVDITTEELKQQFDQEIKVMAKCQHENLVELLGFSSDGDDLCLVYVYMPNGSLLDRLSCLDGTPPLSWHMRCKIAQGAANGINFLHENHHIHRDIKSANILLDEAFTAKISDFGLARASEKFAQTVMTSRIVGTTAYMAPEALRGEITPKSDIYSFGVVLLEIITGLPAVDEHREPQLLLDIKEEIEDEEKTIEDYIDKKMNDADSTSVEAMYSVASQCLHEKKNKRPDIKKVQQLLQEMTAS
Protocol: Determination of IRAK4 Kinase Activity
The kinase activity of IRAK4 is determined by its ability to catalyze the phosphorylation of a fluorescent polypeptide substrate. The extent of phosphorylation is measured using IMAP technology (Molecular Devices) where the phosphorylated fluorescent substrate binds to the large M(III)-based nanoparticles which reduces the rotational speed of the substrate and thus increases its fluorescent polarization (FP).
Procedure: A 20 μl reaction mixture contains 10 mM TriHC1, pH 7.2, 1 nM GST tagged IRAK4 (SignalChem), 100 nM fluorescent peptide substrate (RP7030, Molecular Devices), 100 μM ATP, 1 mM DTT, 2 mM MgCl2, and 0.01% Tween 20. The reaction is initiated by the addition of ATP. After incubation for 1 hour at 25° C., 60 μl of Progressive IMAP Reagent (Molecular Devices) is added to stop the reaction. Change in RP7030's FP is determined by a FP reader (EnVision Multilabel Reader, Perkin Elmer).

[1] = Rat pharmacokinetics after PO and SC dosing; format: in vivo, female Lewis rats; settings: for Cmax: rat, fed female Lewis rats, plasma; for Cmax compared to that of Compound A: rats, at either 30 mpk SC dosing or 30 mpk PO dosing or both
Protocol: Pharmacokinetic Properties
Pharmacokinetic parameters were determined following PO and SC dosing at 30 mg/kg in fed female Lewis rats. Compounds were formulated for both PO and SC dosing in 50/50 (v/v) 50% captisol/50 mM citrate buffer (pH 4). Plasma samples obtained from dosed animals were prepared for analysis by means of a single step protein precipitation technique by adding 200 μL of acetonitrile to 50 μL aliquots of individual subject samples. Samples were mixed by vortex for homogeneity and then subjected to centrifugation at 3500 rpm for 10 min. The supernatant (200 μL) was collected and injected into the LC-MS/MS for analysis. Pharmacokinetic parameters were calculated using established non-compartmental methods.

[2] = 30 mg/kg PO, read-out: Rat PK, 30 mpk PO, Cmax
[3] = 30 mg/kg SC, read-out: Rat PK, 30 mpk SC, Cmax

IC50 (IRAK4) [nM]	Cmax [1, 2] [µM]	Cmax [1, 3] [µM]	Cmax compared to that of Compound A [1]	SMILES
2	1	3.3	–	Cc1ccc(-n2nc(N3CCN(C)CC3)cc2NC(=O)c2cnn3ccccc23)nc1 [Compound A, reference compound]
1	8.6	1.5	superior	Cc1ccc(-n2nc(N3CCN([C@@H]4CCS(=O)(=O)C4)CC3)cc2NC(=O)c2cnn3cccnc23)nc1 [Compound 8, N-[3-{4-[(3R)-1,1-dioxidotetrahydrothiophen-3-yl]piperazin-1-yl}-1-(5-methylpyridin-2-yl)-1H-pyrazol-5-yl]pyrazolo[1,5-a]pyrimidine-3-carboxamide]
2	7.7	8.1	superior	Cc1ccc(-n2nc(N3CCN([C@H]4CCS(=O)(=O)C4)CC3)cc2NC(=O)c2cnn3cccnc23)nc1 [Compound 9, N-[3-{4-[(3S)-1,1-dioxidotetrahydrothiophen-3-yl]piperazin-1-yl}-1-(5-methylpyridin-2-yl)-1H-pyrazol-5-yl]pyrazolo[1,5-a]pyrimidine-3-carboxamide]
4	4.3	16.1	superior	Cc1ccc(-n2nc(N3CCN(CC(N)=O)CC3)cc2NC(=O)c2cnn3cccnc23)nc1 [Compound 16, N-{3-[4-(2-amino-2-oxoethyl)piperazin-1-yl]-1-(5-methylpyridin-2-yl)-1H-pyrazol-5-yl}pyrazolo[1,5-a]pyrimidine-3-carboxamide]
